This note sets out measurements from patent publication US10933033B2, “Composition for preventing or reducing nephrotoxicity and use thereof” (KOREA INSTITUTE OF SCIENCE AND TECHNOLOGY, priority 2018, dated 2021).

The subject of experiment [1] is LLC-PK1 cells. As to the kind of experiment: Protective effect against cisplatin nephrotoxicity, cell viability (CCK-8). The class given is cell-based. As to conditions: for effect on cell viability that had been reduced with cisplatin: 25 μM cisplatin, LLC-PK1, concentration-dependent; for viability at 5 µg/mL / viability at 10 µM / viability at 10 µg/mL / viability at 25 µg/mL / viability at 50 µg/mL / viability at 100 µg/mL: Sus scrofa, LLC-PK1. On the procedure: First, LLC-PK1 cells were cultured in a Dulbecco's modified Eagle's medium (DMEM) (available from Cellgro, Manassas, Va., USA) in which 10% of fetal bovine serum (FBS), 100 units/mL of penicillin G, and 100 μg/mL of streptomycin were added, in an incubator (95% air and 5% CO2) maintained at about 37° C. The used FBS, penicillin G, and streptomycin were purchased from Gibco BRL Life Technologies Inc. The cultured LLC-PK1 cells were dispensed in a 96-well plate at a density of 1×10^4 cells in 100 μL of the same DMEM medium per each well and then stabilized for about 22 hours.
After 1 hour, absorbance at a detection wavelength of 450 nm was measured using a BIO-TEK microplate reader (available from Winooski, Vt., USA) to thereby measure cell viability.

The subject of experiment [2] is LLC-PK1 cells. The experiment can be described thus: Image-based cell analysis of apoptosis (Annexin V / PI, Tali cytometer). As to conditions: for Apoptosis (%): 2 h pre-incubation, then 25 μM cisplatin for 24 h, LLC-PK1. As to the method: The cultured LLC-PK1 cells in DMEM were dispensed in a 6-well plate at a density of 4×10^5 cells in 3 mL of the same DMEM medium per each well and then incubated under the same conditions for 24 hours to stabilize the cells.
After incubation under the same conditions for about 24 hours, the cells were collected using trypsin, washed once with phosphate-buffered saline (PBS), resuspended in 100 μL of annexin-binding buffer ([…], 140 mM NaCl, […], pH 7.4) to reach a cell number of about 5×10^5 to about 5×10^6 cells/mL, and then mixed with 5 μL of Annexin V Alexa Fluor 488 and left in the dark at room temperature for about 20 minutes to fix and stain the cells. The resulting cell suspension was centrifuged to discard the supernatant and collect precipitated cell pellets. The precipitated cell pellets were resuspended in 100 μL of annexin-binding buffer to obtain a resuspension.
Next, 1 μL of propidium iodide (PI) was added to the resuspension, mixed thoroughly, and then left in the dark at room temperature for about 1 minute to about 5 minutes to fix and stain the cells. The stained cells were analyzed using a Tali Image-based cytometer and TaliPCApp (version 1.0) software.
Cells were divided into live cells (annexin V-negative/PI-negative), early apoptotic cells (annexin V-positive/PI-negative), and late apoptotic or necrotic cells (annexin V-positive/PI-positive), and total apoptotic cells were expressed as a ratio of annexin V-positive cells to PI-negative or PI-positive cells.

Regarding `O=C1CC2C(=C3c4c2ccc(O)c4[C@@H](O)C[C@@H]3O)c2cccc(O)c21` (some centres unmarked) [Hypoxylonol C], in the experiment on LLC-PK1 cells [1], the “effect on cell viability that had been reduced with cisplatin” value is “significantly increase cell viability”, the viability at 5 µg/mL turned out to be 76.9%, the viability at 10 µM was at least 85% and the viability at 10 µg/mL stood at 86.6%. In the experiment with LLC-PK1 cells [1], this molecule registered a viability at 25 µg/mL of 89.3%, a viability at 50 µg/mL of 89.5% and a viability at 100 µg/mL of 92.5%.

Turning to `Oc1cccc2c(-c3ccc(O)c4c(O)cccc34)ccc(O)c12` [BNT, 1,1′-binaphthalene-4,4′,5,5′-tetrol], in the experiment with LLC-PK1 cells [1], the “effect on cell viability that had been reduced with cisplatin” value is listed as “significantly increase cell viability”, the viability at 5 µg/mL was found to be 63.3%, the viability at 10 µg/mL came out at 65.1% and the viability at 25 µg/mL was 65.4%. In the experiment with LLC-PK1 cells [1], this molecule had a viability at 50 µg/mL of 71.5% and a viability at 100 µg/mL of 75.1%.

In the case of `O=C1CC2C(=C3c4c2ccc(O)c4[C@H](O)C[C@@H]3O)c2cccc(O)c21` (some centres unmarked) [Hypoxylonol F], in the experiment with LLC-PK1 cells [1], the “effect on cell viability that had been reduced with cisplatin” value is “significantly increase cell viability”, the viability at 5 µg/mL was 86.4%, the viability at 10 µM was at least 90% and the viability at 10 µg/mL amounted to 90.9%. In the experiment on LLC-PK1 cells [1], the viability at 25 µg/mL was 92.2%, the viability at 50 µg/mL stood at 92.3% and the viability at 100 µg/mL stood at 94.4%. For the same molecule, the “apoptosis of the LLC-PK1 cells caused by cisplatin” value with LLC-PK1 cells [2] (5 μM and 10 μM, 25 μM cisplatin) was “significantly reduced”. Further, the “Apoptosis (%)” value with LLC-PK1 cells [2] (5 μM) turned out to be 26.3%. Moreover, the “Apoptosis (%)” value in the experiment with LLC-PK1 cells [2] (10 μM) is 6.6%.
